Assay results: PubChem BioAssay (NCI)
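Test compounds were applied to cells in 96-well plates for 48 hours at 5 doses. Abbreviation: GI50, concentration required for 50% inhibition of growth. TGI denotes the concentration required for complete inhibition of growth.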 Where a SMILES comes first, the peptide text is derived from it. [ ]: non-standard residue; d: D form. 2Nal = N[CH](Cc1ccc2ccccc2c1)C(=O)O

Legend:
Assay in all cases: NCI-60 cell line screen, 48 h
786-0 renal = test system: 786-0 renal
EKVX NSCLC = test system: EKVX NSCLC
HCT-15 colon = test system: HCT-15 colon
NCI-H522 lung = test system: NCI-H522 lung
OVCAR-4 ovarian = test system: OVCAR-4 ovarian
RXF 393 renal = test system: RXF 393 renal
SF-268 CNS = test system: SF-268 CNS
SF-295 CNS = test system: SF-295 CNS
SK-MEL-2 melanoma = test system: SK-MEL-2 melanoma
TK-10 renal = test system: TK-10 renal

Structure (SMILES) | TGI (786-0 renal) [µM] | TGI (EKVX NSCLC) [µM] | TGI (HCT-15 colon) [µM] | TGI (NCI-H522 lung) [µM] | TGI (OVCAR-4 ovarian) [µM] | TGI (RXF 393 renal) [µM] | TGI (SF-268 CNS) [µM] | TGI (SF-295 CNS) [µM] | TGI (SK-MEL-2 melanoma) [µM] | TGI (TK-10 renal) [µM] | GI50 (786-0 renal) [µM] | GI50 (EKVX NSCLC) [µM] | GI50 (HCT-15 colon) [µM] | GI50 (NCI-H522 lung) [µM] | GI50 (OVCAR-4 ovarian) [µM] | GI50 (SF-268 CNS) [µM] | GI50 (SF-295 CNS) [µM] | GI50 (SK-MEL-2 melanoma) [µM] | GI50 (TK-10 renal) [µM] | GI50 (RXF 393 renal) [µM]
CC(=O)O[C@H]1C(=O)[C@@]2(C)[C@H]([C@H](OC(=O)c3ccccc3)[C@@]3(O)C[C@H](O)C(C)=C1C3(C)C)[C@]1(OC(C)=O)CO[C@@H]1C[C@@H]2O | > 100 | > 100 | > 100 | 44.1 | > 100 | > 100 | > 100 | > 100 | > 100 | > 100 |  |  |  |  |  |  |  |  |  | 
C=C1NC(=O)C(CC(C(=O)C(=O)Nc2c(C)cccc2C(C)(C)C)C(=O)c2ccc3ccccc3c2)C(=O)N1 (stereo not drawn) | > 100 |  | > 100 |  | > 100 | > 100 | > 100 | > 100 | > 100 |  |  |  |  |  |  |  |  |  |  | 
O=C(c1ccccc1)c1c(CC(O)c2ccccc2)n(C(=O)c2ccccc2)c2ccccc12 (stereo not drawn) | > 100 |  | > 100 | 64.7 | > 100 |  | > 100 | > 100 | > 100 | > 100 |  |  |  |  |  |  |  |  |  | 
CC1CCc2c(c(CC3CC(=O)NC(=O)C3)nn2-c2ccccc2)C1 (stereo not drawn) | > 100 | > 100 | > 100 |  | > 100 | > 100 | > 100 | > 100 | > 100 | > 100 |  |  |  |  |  |  |  |  |  | 
NNC(=O)N/N=C1\C(=O)N(c2nccs2)C(=O)C(=O)C1c1nc2ccccc2s1 (stereo not drawn) | > 100 | > 100 | > 100 |  | > 100 | > 100 | > 100 | > 100 | > 100 | > 100 |  |  |  |  |  |  |  |  |  | 
CCCCCCCCCOC(=S)NCCCCC | > 100 | 86.8 | 53.9 | 46.6 | > 100 | 53.6 | > 100 | > 100 |  | 56.4 |  |  |  |  |  |  |  |  |  | 
CCc1nc2cc(/C=C/C(=O)NO)ccc2c(=O)n1CCc1ccc(F)cc1 | 3.89 | 7.21 | 39.6 | 4.06 | > 100 |  | 5.98 | 3.61 | 6.59 | 4.89 | 1.76 | 2.44 | 1.57 | 1.34 | 2.34 | 2.14 | 1.87 | 2.9 | 1.42 | 
COC(=O)C(C(=O)C(=O)Nc1ccc(OC)cc1[N+](=O)[O-])c1nc2cc(C)c(C)cc2[nH]c1=O (stereo not drawn) | > 100 | > 100 | > 100 | > 100 | > 100 | > 100 | > 100 | > 100 |  | > 100 |  |  |  |  |  |  |  |  |  | 
CC[C@@H](C)Nc1cc(C(=O)NC2CC3CCC(C2)N3c2ccc(C(=O)C3CC3)cn2)c(C)cc1C(N)=O (stereo partly drawn) | > 100 |  | > 100 | 41.8 | > 100 | > 100 | > 100 | > 100 | 19 | 89 | 0.152 |  | 0.0317 | 0.0451 | 1.31 | 0.357 | 0.0288 | 0.0661 | 0.0387 | 0.0516
COC(=O)c1ccc2c(c1)c1c(C)c3ccncc3c(C)c1n2C | 18 | 36.2 | 21.2 | 32 | 30.8 |  | > 100 | 7.48 | 31.6 | 70.3 | 0.268 | 0.274 | 0.215 | 0.538 | 0.396 | 0.114 | 0.0647 | 0.75 | 0.89 | 
CC(C)C(NC(=O)C(CCCCN)NC(=O)C(Cc1c[nH]c2ccccc12)NC(=O)C(Cc1ccc(O)cc1)NC(=O)C(CS)NC(=O)C(N)Cc1ccc2ccccc2c1)C(=O)NC(CS)C(=O)NC(C(N)=O)C(C)O (stereo not drawn) (H-[2Nal]CYWKVCT-NH2; configuration not given here) | > 100 | > 100 | > 100 | > 12.5 | > 100 | > 100 | > 12.5 | > 100 | > 100 |  | > 100 | > 100 | > 100 |  | > 100 |  | > 100 | > 100 |  | > 100
COc1cc(CC(C(=O)O)C(=O)O)c(OC)cc1CC(C(=O)O)C(=O)O | > 100 | > 100 | > 100 | > 100 | > 100 | > 100 | > 100 | > 100 |  | > 100 |  |  |  |  |  |  |  |  |  | 
O=C(O)CC1CC=C[C@H]2c3cc4c(cc3C(=O)NC12)OCO4 (stereo partly drawn) | > 75 | > 75 | > 75 | > 75 |  | > 75 | > 75 | > 75 |  | > 75 |  |  |  |  |  |  |  |  |  | 
CC(=O)C1CCC2C3CC=C4CC(SC(=N)N)CCC4(C)C3CCC12C (stereo not drawn) | 3.29 | 6.88 |  |  | 4.8 | 3.63 | 16.1 | 2.99 |  | 3.17 | 1.64 | 1.43 |  |  | 1.85 | 3.11 | 1.49 |  | 1.69 | 1.66
CCN(CC)CC(C)(C)C(=O)/C=C/c1ccc(/C=C/C(=O)C(C)(C)CN(CC)CC)cc1 | 0.411 | 3.67 | 0.901 | 0.194 |  | 0.928 | 2.11 | 2.54 | 3.32 | 2.49 |  |  |  |  |  |  |  |  |  | 
O=C(Nc1ccc2c(c1)OCO2)C(=O)c1c[nH]c2cc(F)ccc12 | 23 | > 100 | > 100 |  | > 100 | 11 | 22.1 | 21.5 | 31.1 | 25.4 | 4.39 | 13.3 | 0.67 |  | 1.9 | 4.52 | 2.19 | 5.19 | 7.04 | 3.65
COC(=O)C1=C(C(=O)OC)C2OC1c1cc3ccccc3cc12 | 3.29 | 17.6 | 8.09 | 2.9 |  | 3.29 | 34.9 | 38.3 | 29.5 | 11.3 |  |  |  |  |  |  |  |  |  | 
